Results: patent US20030064941A1, “Avermectin and praziquantel combination therapy” (priority 2001, published 2003)
Converted amounts (≈) assume the structure as drawn. “And” between values parts separate entries of the source, which are not always exact repeats. Equal entries are not always repeated. Where two headings read alike, the source gives them in different places. One block for each compound: values may come before it.

Tests used:
Taenia taeniaeformis = conditions: cats, experimental immature infections; cited from earlier work
Dipylidium spp = assay: Topical co-formulation efficacy against natural tapeworm infections in cats (post mortem counts); assay type: in vivo; conditions: single topical dose, 30 days after treatment
Method: (§1) […] Cats harbouring natural tapeworm infections were used, and randomized to treatment based on pre-trial infections. Animals were killed 30 days after treatment, and post mortem tapeworm counts were conducted.

Taenia spp = assay: as above; assay type: in vivo; conditions: Trial "B", single topical dose, 30 days after treatment
Method: as §1

[1] = cats, 3× dosage levels (oral, subcutaneous, intramuscular) during reproduction; cited from earlier work
physchem = conditions: 30 °C, organic solvent or mixture, thermodynamic from solid, solubility (based on mean values)
Method: (§2) To achieve this a series of solutions of varying IPA/DPGMME ratio were prepared. To help minimize any solubility issues, which could arise due to the presence of selamectin in a formulation, a constant amount of selamectin was added to each solution. After achieving saturated solubility in these solutions and following filtration to remove excess undissolved praziquantel, the level of praziquantel (and selamectin) in solution was determined by HPLC.
(§3) A series of IPA/DPGMME mixtures were prepared in duplicate as outlined in Table 1. To these were added a fixed amount of selamectin to provide a constant concentration of 120 mg per ml, i.e., the maximum selamectin concentration found in Stronghold™. After preparation these solutions were placed at 30° C. and rolled continuously for 48 hours.
(§4) Praziquantel was analysed using an gradient HPLC method modified from that developed for selamectin. […] This same method was also used to check on the selamectin content in these same solutions.
(§5) The solubility of praziquantel and selamectin in the IPA/DPGMME solutions was calculated as both mg per g and mg per ml. The mass of a 1 ml solution taken for analysis was also measured so that an approximate density could be calculated.

[2] = for Concentration (mg per g) / Concentration (mg per ml): selamectin added at 120 mg per ml, 30° C.
Method: as §2, §3, §4, §5

[3] = Trial "A", selamectin 8 mg/kg and/or praziquantel 1 mg/kg
[4] = Trial "B", praziquantel 0.5 mg/kg, alone or with selamectin 8 mg/kg
[5] = Trial "B", selamectin 8 mg/kg and/or praziquantel 1 mg/kg
[6] = praziquantel 0.5 mg/kg, alone or with selamectin 8 mg/kg
[7] = selamectin 8 mg/kg and/or praziquantel 1 mg/kg
[8] = solution 2A: IPA 75 / DPGMME 25 % V/V
[9] = solutions 1A/1B: IPA 100 / DPGMME 0 % V/V
[10] = solutions 3A/3B: IPA 50 / DPGMME 50 % V/V
[11] = solutions 4A/4B: IPA 25 / DPGMME 75 % V/V
[12] = solutions 5A/5B: IPA 0 / DPGMME 100 % V/V

solubility at 48 h (physchem): 67 mg/mL (≈ 214 mM)
SMILES: O=C(C1CCCCC1)N1CC(=O)N2CCc3ccccc3C2C1 (stereo not shown) [Praziquantel, 2-(cyclohexylcarbonyl)-1,2,3,6,7-11b-hexahydro-4H-pyraz-ino[2,1-a]isoquinolin-4-one]
elimination of experimental T. taeniaeformis infections as young as seven (7) days (Taenia taeniaeformis): 100% | % Efficacy (Dipylidium) (Dipylidium spp; [3]): 74% | Mean Dipylidium post mortem count (n = 4 / gp) (Dipylidium spp; [3]): 3.25 | % Efficacy (Dipylidium) (Dipylidium spp; [4]): 16% | Mean Dipylidium post mortem count (n = 5 / gp) (Dipylidium spp; [4]): 7.6 | % Efficacy (Dipylidium) (Dipylidium spp; [5]): 89% | Mean Dipylidium post mortem count (n = 5 / gp) (Dipylidium spp; [5]): 1 | % Efficacy (Taenia) (Taenia spp; [6]): 100% | Mean Taenia post mortem count (n = 5 / gp) (Taenia spp; [6]): 0 | % Efficacy (Taenia) (Taenia spp; [7]): 72% | Mean Taenia post mortem count (n = 5 / gp) (Taenia spp; [7]): 1.2 | effects on fertility, conception, fetal development or pregnancy [1]: lack of effects on fertility, conception, fetal development or pregnancy

SMILES: CO[C@H]1C[C@H](O[C@@H]2/C(C)=C/C[C@@H]3C[C@@H](C[C@]4(CC[C@H](C)[C@@H](C5CCCCC5)O4)O3)OC(=O)[C@@H]3C=C(C)/C(=N/O)[C@H]4OC/C(=C\C=C\[C@@H]2C)[C@]43O)O[C@@H](C)[C@@H]1O [Selamectin, 5-oximino-22,23-dihydro-25-cyclohexylayermectin B1]
% Efficacy (Dipylidium) (Dipylidium spp; [3]): 40% | Mean Dipylidium post mortem count (n = 4 / gp) (Dipylidium spp; [3]): 7.2 | Mean Dipylidium post mortem count (n = 5 / gp) (Dipylidium spp; [5]): No infection | Mean Taenia post mortem count (n = 5 / gp) (Taenia spp; [7]): No infection | solubility as the IPA concentration reduces ([2]; IPA/DPGMME solutions, all ratios): ≥ 100 mg/g | Concentration (mg per g) [2, 8]: 118 mg per g | Concentration (mg per ml) [2, 8]: 103 mg per ml | Concentration (mg per g) [2, 9]: 123 mg per g | Concentration (mg per ml) [2, 9]: 103 mg per ml | Concentration (mg per g) [2, 10]: 113 mg per g | Concentration (mg per ml) [2, 10]: 103 mg per ml | Concentration (mg per g) [2, 11]: 113 mg per g and 108 mg per g | Concentration (mg per ml) [2, 11]: 107 mg per ml and 103 mg per ml | Concentration (mg per g) [2, 12]: 104 mg per g and 103 mg per g | Concentration (mg per ml) [2, 12]: 103 mg per ml and 102 mg per ml
